This is an account of results in patent publication US11491127B2, “Therapeutic use of compounds” (UCL BUSINESS LTD, priority 2010, dated 2022).

Read-outs that look alike come from different tables or passages of the source.

In data set [1] the test system is phosphoinositide (PIP and PIP2) turnover in Dictyostelium AX2 cells. The data set can be described thus: Dictyostelium phospholipid labelling (PIP and PIP2 turnover). Type of data set: cell-based, Dictyostelium discoideum. The conditions noted are these: for activity at 500 µM: Dictyostelium, 0.1 h. The procedure:
Phospholipid labelling was quantified using a Typhoon phosphor-imager. Even loading was determined using total lipid stain with copper sulphate.

In data set [2] the test system is PTZ-induced epileptiform activity in entorhinal cortex-hippocampal slices. Briefly: In vitro PTZ acute seizure model, entorhinal cortex-hippocampus slices. To be noted: PTZ 2 mM, [K+] 6 mM; compounds equimolar 1 mM; 30 to 40 minutes after application. Type of data set: cell-based, rat. The procedure:
The rats (p21) were decapitated after killing by intraperitoneal injection with an overdose of pentobarbitone (500 mg/kg). The brain was removed and placed in ice-cold sucrose solution in mM: NaCl 87, KCl 2.5, MgCl2 7, CaCl2 0.5, NaH2PO4 1.25, sucrose 75, glucose 25, equilibrated with 95% 02/5% CO2 (pH 7.4). Horizontal combined entorhinal cortex-hippocampus slices (350 μm) were prepared with a Leica vibratome (Leica V T1200S) and were then stored in an interface chamber that contained artificial cerebrospinal fluid solution (aCSF) containing in mM: NaCl 119, KCl 2.5, MgSO4 4, CaCl2 4, NaHCO326.2, NaH2PO4 1, glucose 11, and gassed with 95% O2/5% CO2. They were stored for over one hour before being transferred to a submersion recording chamber continually perfused with carbogenated aCSF for recording. Field potential recordings were made by placing glass microelectrodes (˜1-2 MΩ) filled with aCSF solution in stratum radiatum of CA1. Bipolar stimulating electrodes were positioned in the Schaffer collateral/commissural fibre pathway in stratum radiatum to confirm slice viability. In the PTZ acute seizure model, PTZ (2 mM) was added to the perfusate and [K+] was increased to 6 mM in order to induce epileptiform activity (Armand et al., 1998). In the low Mg^2+ acute seizure model, Mg^2+ free aCSF was applied to generate rhythmic short recurrent discharges. Novel anticonvulsants were applied once the frequency and amplitude of the epileptiform discharges were stable over a period of 10 min. Anticonvulsant effects were evaluated by measuring the variation of frequency of the discharges every minute. The data acquired from the 30 to 40 minutes after application novel anticonvulsants were compared by ANOVA followed by post-hoc testing using Tukey test, using SPSS statistical analysis.

The subject of data set [3] is release of 3H arachidonic acid / palmitic acid radiolabel from Dictyostelium cells. Briefly: Fatty acid release (3H radiolabel release from labelled cells). To be noted: for activity at 500 µM: Dictyostelium, 0.5 h, 3H-AA labelled cells, 0.5 mM treatment, read-out: AA release [% of control]; for effect of PLA2 inhibitors on radiolabel release from 3H-AA cells: BEL 80 μM, MAFP 50 μM, BPB 20 μM, cocktail of all three. Type of data set: cell-based, Dictyostelium discoideum.

Data set [4] relates to uptake of 3H arachidonic acid / palmitic acid into Dictyostelium cells. The data set can be described thus: Fatty acid uptake (3H radiolabel incorporation into cells). Type of data set: cell-based, Dictyostelium discoideum.
The conditions of data set [5]: Table 2; cited from earlier work.
In data set [6] the test system is inositol levels in Dictyostelium cells. Briefly: Inositol levels in treated Dictyostelium cells. Type of data set: cell-based, Dictyostelium discoideum. To be noted: time period causing phosphoinositide attenuation (9 min). Here is the method:
Following a 6 min incubation, labelling solution was removed and cells were lysed in acidified methanol and phospholipids were separated as previously detailed (Williams et al., 1999). Phospholipid labelling was quantified using a Typhoon phosphor-imager. Even loading was determined using total lipid stain with copper sulphate. Inositol levels were measured from five hour developed cells (similar to phospholipid labelling), following lyophilisation, as previously described (Maslanski & Busa, 1990).

The mark [7] stands for this setting: read-out: PIP Level (% control), Table 1, 0.5 mM compound, 3 min pre-treatment + 6 min labelling, wild type Dictyostelium.
Setting [8] is: read-out: PIP level % control, Table 2, VPA and straight chain acids in Dictyostelium.
[9] abbreviates: Table 1, 0.5 mM compound, 3 min pre-treatment + 6 min labelling, wild type Dictyostelium.
Where [10] appears, read: Table 1, wild type Dictyostelium.

Turning to `CCC(C)CCC(=O)O` (stereo not drawn) [4-methylhexanoic acid], the activity at 500 µM in data set [1] (setting [7]) was 68%.

Regarding `CCCCCC(=O)O` [hexanoic acid], the activity at 500 µM in data set [1] (setting [7]) and in data set [1] (setting [8]) was 49.2% in each case.

In the case of Tert-butyl amide, in data set [1] (setting [9]), the “PIP Level (% control)” value was determined as 47.6 % control.

In the case of `CCCCC=O` [pentanal], the activity at 500 µM in data set [1] (setting [7]) worked out at 52%.

Turning to `CCCCCCCCCC(=O)O` [decanoic acid], the activity at 500 µM in data set [1] (setting [7]) was 12.9%; in data set [1] (setting [8]) it was 12.9%; in data set [3] (Table 3, 30 min) it was 62%. Also, in data set [2], the “frequency of epileptiform discharges (seizure discharge frequency)” value (from here on “frequency of epileptiform discharges”) came out at 0.23±0.23%.

For `CC(CC(=O)O)CC(C)(C)C` (stereo not drawn) [3,5,5-trimethylhexanoic acid], the activity at 500 µM in data set [1] (setting [7]) turned out to be 32%.

`CCCC(C(N)=O)C(C)C` (stereo not drawn) [PID, propylisopropylacetamide]: in data set [1] (setting [7]), the activity at 500 µM was found to be 59%.

With `CNC(=O)C1C(C)(C)C1(C)C` [MTMCD, N-methyl-tetramethyl-cyclopropane carboxamide], the “PIP Level (% control)” value in data set [1] (setting [9]) came to 50.8 % control.

Consider `CCCOC(=O)C(C)CCC` (stereo not drawn) [n-propyl 2-methylvalerate], for which the activity at 500 µM in data set [1] (setting [7]) was found to be 121%.

For the compound `NCCCC(=O)O` [GABA, 4-aminobutanoic acid, reference compound], the activity at 500 µM in data set [1] (setting [7]) turned out to be 60.8%.

For the compound `CCCC(CO)CCC` [2-propyl-1-pentanol], the activity at 500 µM in data set [1] (setting [7]) worked out at 101%.

As for `CCC(C)CC(=O)O` (stereo not drawn) [3-methylpentanoic acid], in data set [1] (setting [7]), the activity at 500 µM was 64%.

In the case of `O=C1O/C(=C/Br)CCC1c1cccc2ccccc12` (stereo not drawn) [BEL, reference compound], in data set [3], the “effect of PLA2 inhibitors on radiolabel release from 3H-AA cells” value was “reduced radiolabel release”.

Regarding `CCCCC(CC)CCC(=O)O` (stereo not drawn) [4-ethyloctanoic acid], the activity at 500 µM in data set [1] (setting [7]) came out at 13.2%; in data set [3] (Table 3, 30 min) it was 87%.

Turning to `CC(C)CCCC(=O)O` [5-methylhexanoic acid], in data set [1] (setting [7]), the activity at 500 µM worked out at 7.2%.

In the case of `CCCC(C(=O)O)C(C)C` (stereo not drawn) [PIA, propylisopropylacetic acid], the activity at 500 µM in data set [1] (setting [7]) worked out at 15.4%. For the same compound, the “inhibitory effect on radiolabel release” value in data set [3] (3H-AA, FIG. 9) is “strong”. Besides, the “effect on 3H-AA uptake compared with VPA” value in data set [4] (3H-AA, FIG. 9) was “elevated uptake”.

For `CCCCCCCCC(C)CC(=O)O` (stereo not drawn) [3-methylundecanoic acid], the activity at 500 µM in data set [1] (setting [7]) was determined as 50%.

One may read the pKa as the negative logarithm of the acid dissociation constant. For `CCCCCCCC(=O)O` [octanoic acid], the activity at 500 µM in data set [1] (setting [7]) came out at 16.7%; in data set [1] (setting [8]), 16.7%; in data set [3] (Table 3, 30 min), 72%. Also, the pKa in data set [5] is 4.89.

Consider `CCCCCCCCC(=O)O` [nonanoic acid], for which the activity at 500 µM in data set [1] (setting [7]) worked out at 8%; in data set [1] (setting [8]), 8%; in data set [3] (Table 3, 30 min), 66%. Moreover, in data set [1] (setting [10]), the “reduction of PIP2 signalling” value is given as 93%. In addition, in data set [1] (setting [10]), the “reduction of PIP signalling” value turned out to be 92%. Besides, the “frequency of epileptiform discharges” value in data set [2] was 20.9±7.5%. Further, the “reduction in inositol levels” value in data set [6] is “do not acutely deplete inositol”. Further, the pKa in data set [5] is on record as 4.95.

Turning to `CCCCCC(C)CCC(=O)O` (stereo not drawn) [4-methylnonanoic acid], the activity at 500 µM in data set [1] (setting [7]) turned out to be 45%; in data set [3] (Table 3, 30 min), 63%.

With `CC/C=C/C(=O)O` [trans-pent-2-enoic acid], the activity at 500 µM in data set [1] (setting [7]) was 50.4%.

Consider `CCCCC(CC)C(=O)O` (stereo not drawn) [2-ethylhexanoic acid], for which, in data set [1] (setting [7]), the activity at 500 µM is 22.2%.

`CCCCCCC(CCC)C(=O)O` (stereo not drawn) [2-propyloctanoic acid]: the “frequency of epileptiform discharges” value in data set [2] stood at 5.3±3.3%. Also, in data set [3] (Table 3, 30 min), the activity at 500 µM is 45%. Also, the “radiolabel release activity relative to control” value in data set [3] (Table 3, 30 min, 0.5 mM) is given as ≤ 45 % of control.

For `CC1(C)C(C(N)=O)C1(C)C` [TMCD, tetramethylcyclopropane-carboxamide], the “PIP Level (% control)” value in data set [1] (setting [9]) is on record as 72.5 % control.

As to `C=CC(C)CC(=O)O` (stereo not drawn) [3-methyl-4-pentenoic acid], the activity at 500 µM in data set [1] (setting [7]) is 84%.

For the compound `CCCCCCCCC(CCC)C(=O)O` (stereo not drawn) [2-propyl-decanoic acid], the activity at 500 µM in data set [3] (Table 3, 30 min) amounted to 56%.

With `CCCCCCCC=O` [octanal], the activity at 500 µM in data set [1] (setting [7]) turned out to be 260%.

In the case of `CCCCCCCCCCCCCCCCC(=O)O` [heptadecanoic acid], the activity at 500 µM in data set [1] (setting [7]) and in data set [1] (setting [8]) was 92.3% throughout. The pKa in data set [5] was 4.78.

Regarding latrunculin, in data set [4] (latrunculin 10 μM), the “effect on VPA-induced AA uptake” value is on record as “failed to attenuate” and the “fatty acid uptake in control cells” value is listed as “decreased uptake”.

Regarding `CCCCC(=O)O` [pentanoic acid], the activity at 500 µM in data set [1] (setting [7]) and in data set [1] (setting [8]) was 66.9% throughout. For the same compound, the “frequency of epileptiform discharges” value in data set [2] is given as “not seen”. The pKa in data set [5] is recorded as 4.84.

Take `CC1(C)C(C(=O)O)C1(C)C` [TMCA, tetramethylcyclopropane carboxylic acid]: the “PIP Level (% control)” value in data set [1] (setting [9]) was 33.9 % control.

`CCCCCCCCC(CO)CCCCCC` (stereo not drawn) [2-hexyl-1-decanol]: in data set [1] (setting [7]), the activity at 500 µM came to 191%.

As to `CCCCCCCCC(CC)C(=O)O` (stereo not drawn) [2-ethyl-decanoic], the activity at 500 µM in data set [3] (Table 3, 30 min) came out at 73%.

Take `C=CCC(C)(C)C(=O)O` [2,2-dimethyl-4-pentenoic acid]: in data set [1] (setting [7]), the activity at 500 µM was found to be 60%.

Take `CCCCCCC(=O)O` [heptanoic acid]: the activity at 500 µM in data set [1] (setting [7]) and in data set [1] (setting [8]) was 31.2% throughout. Moreover, the pKa in data set [5] is listed as 4.89.

With `CCCC(C)C(=O)O` (stereo not drawn) [2-methylpentanoic acid], the activity at 500 µM in data set [1] (setting [7]) was 59%.

Consider `CCCCCCCCC=O` [nonanal], for which the activity at 500 µM in data set [1] (setting [7]) was 99%.

For `CCCCCCC(CO)CCCC` (stereo not drawn) [2-butyl-1-octanol], the activity at 500 µM in data set [1] (setting [7]) came to 93%.

On to `CCCCCCC(CCCC)C(=O)O` (stereo not drawn) [2-butyloctanoic acid], for which, in data set [2], the “frequency of epileptiform discharges” value is reported as 5.2±5.0%.

On to `CCCCC(=O)OC` [methylvalerate], for which the activity at 500 µM in data set [1] (setting [7]) was 46%.

For `CCCCC(C)(C)C(=O)O` [2,2-dimethylhexanoic], the “PIP Level (% control)” value in data set [1] (setting [9]) was 29.7 % control.

Take `CCCCC(C)C(=O)O` (stereo not drawn) [2-methylhexanoic acid]: in data set [1] (setting [7]), the activity at 500 µM worked out at 68.1%.

Take `O=C(O)C(c1ccccc1)c1ccccc1` [Diphenylacetic acid, 2,2-diphenylacetic acid]: in data set [1] (setting [7]), the activity at 500 µM was 39%.

Regarding 4-hexenoic acid, (cis + trans), the “PIP Level (% control)” value in data set [1] (setting [9]) is 58 % control.

Take `CCC(C)C(CC)C(N)=O` (stereo not drawn) [valnocatmide, 2-ethyl-3-methyl valeramide, reference compound]: in data set [1] (setting [9]), the “PIP Level (% control)” value is reported as 64 % control.

Regarding `CC(C)C(C(=O)O)C(C)C` [DIA, diisopropylacetic acid], in data set [1] (setting [7]), the activity at 500 µM came to 18.6%.

On to `CCCCCC(C)C(=O)O` (stereo not drawn) [2-methylheptanoic], for which, in data set [1] (setting [9]), the “PIP Level (% control)” value is reported as 16.1 % control.

As for `CCCCCCCCCCCC(=O)O` [dodecanoic acid], the activity at 500 µM in data set [1] (setting [7]) is 42%; in data set [1] (setting [8]) it was 42%; in data set [3] (Table 3, 30 min), 89%. Moreover, in data set [5], the pKa was 4.85.

In the case of `O=C(CBr)c1ccc(Br)cc1` [BPB, reference compound], in data set [3], the “effect of PLA2 inhibitors on radiolabel release from 3H-AA cells” value is given as “reduced radiolabel release”.

Take `CC(C)(C)CC(=O)O` [TBA, tert-butylacetic acid]: the activity at 500 µM in data set [1] (setting [7]) turned out to be 21.4%.
